Data reported in ChEMBL document CHEMBL4033754, “Antiobesity Effect of a Short-Length Peptide YY Analogue after Continuous Administration in Mice” (ACS Med Chem Lett, 2017).
Where a SMILES comes first, the peptide text is derived from it. [ ]: non-standard residue; d: D form. The star is where a group is joined. ξ: configuration not given here. Cha = N[C@@H](CC1CCCCC1)C(=O)O; ξCha = NC(CC1CCCCC1)C(=O)O; Isobutyryl = CC(C)C(=O)*; Aib = CC(C)(N)C(=O)O; Bz = O=C(c1ccccc1)*; ξAbu = CCC(N)C(=O)O; Sar = CNCC(=O)O

Legend:
[1] = biological target: T1, Neuropeptide Y receptor type 2 (Homo sapiens, UniProt P49146); assay: Displacement of [125I]-PYY from human Y2R expressed in CHO cell membranes after 60 mins by liquid scintillation method
T1 sequence (P49146 whole entry): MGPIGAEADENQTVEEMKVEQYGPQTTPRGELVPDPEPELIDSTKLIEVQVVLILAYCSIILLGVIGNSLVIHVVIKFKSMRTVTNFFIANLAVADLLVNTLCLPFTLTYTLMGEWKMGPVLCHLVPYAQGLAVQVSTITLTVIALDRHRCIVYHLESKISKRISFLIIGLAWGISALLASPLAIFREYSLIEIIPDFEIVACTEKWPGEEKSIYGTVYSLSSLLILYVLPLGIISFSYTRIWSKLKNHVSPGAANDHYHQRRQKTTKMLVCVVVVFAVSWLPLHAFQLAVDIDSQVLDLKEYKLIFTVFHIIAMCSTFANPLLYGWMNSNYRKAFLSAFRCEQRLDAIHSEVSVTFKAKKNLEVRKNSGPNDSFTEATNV

[2] = biological target: T1, Neuropeptide Y receptor type 2; assay: Agonist activity at human Y2R expressed in CHO cell membranes assessed as [35S]GTPgammaS binding after 120 mins by liquid scintillation method; assay type: functional
[3] = test system: Mus musculus; assay: Antiobesity activity in lean C57BL/6J mouse assessed as inhibition of food intake at 1 mg/kg administered via subcutaneous osmotic pumps for 3 continuous days relative to control; conditions: sc

Structure (SMILES) | IC50 [1] [nM] | EC50 [2] [nM] | inhibition in vivo at 1 mg/kg [3] [%]
CCC(NC(=O)[C@H](CCCNC(=N)N)NC(=O)[C@@H](CC(C)C)NC(=O)[C@@H](CO)NC(C)=O)C(=O)NC(CC1CCCCC1)C(=O)NC(CC1CCCCC1)C(=O)N[C@@H](CC(N)=O)C(=O)N[C@@H](CC(C)C)C(=O)NC(C)(C)C(=O)N[C@H](C(=O)N[C@@H](CCCNC(=N)N)C(=O)N[C@@H](CCC(N)=O)C(=O)N[C@@H](CCCNC(=N)N)C(=O)NC(CC1CCCCC1)C(N)=O)[C@@H](C)O (stereo partly specified) | 23 | 3.8 | –
CCC(NC(=O)[C@H](CCCNC(=N)N)NC(=O)[C@H](CC(C)C)NC(=O)[C@H](CO)NC(C)=O)C(=O)NC(CC1CCCCC1)C(=O)NC(CC1CCCCC1)C(=O)N[C@@H](CC(N)=O)C(=O)N[C@@H](CC(C)C)C(=O)NC(C)(C)C(=O)N[C@H](C(=O)N[C@@H](CCCNC(=N)N)C(=O)N[C@@H](CCC(N)=O)C(=O)N[C@@H](CCCNC(=N)N)C(=O)NC(CC1CCCCC1)C(N)=O)[C@@H](C)O (stereo partly specified) | 8.8 | 3 | –
CC(=O)N[C@@H](CO)C(=O)N(C)[C@@H](C)C(=O)N[C@@H](CCCNC(=N)N)C(=O)N[C@@H](Cc1cnc[nH]1)C(=O)NC(CC1CCCCC1)C(=O)NC(CC1CCCCC1)C(=O)N[C@@H](CC(N)=O)C(=O)N[C@@H](CC(C)C)C(=O)NC(C)(C)C(=O)N[C@H](C(=O)N[C@@H](CCCNC(=N)N)C(=O)N[C@@H](CCC(N)=O)C(=O)N[C@@H](CCCNC(=N)N)C(=O)NC(CC1CCCCC1)C(N)=O)[C@@H](C)O (stereo partly specified) | 5.4 | 1.2 | –
CCC(NC(=O)[C@H](CCCNC(=N)N)NC(=O)[C@H](CC(C)C)NC(=O)[C@@H](CO)NC(C)=O)C(=O)NC(CC1CCCCC1)C(=O)NC(CC1CCCCC1)C(=O)N[C@@H](CC(N)=O)C(=O)N[C@@H](CC(C)C)C(=O)NC(C)(C)C(=O)N[C@H](C(=O)N[C@@H](CCCNC(=N)N)C(=O)N[C@@H](CCC(N)=O)C(=O)N[C@@H](CCCNC(=N)N)C(=O)NC(CC1CCCCC1)C(N)=O)[C@@H](C)O (stereo partly specified) | 12 | 5.5 | –
CCC(NC(=O)[C@H](CCCNC(=N)N)NC(=O)[C@@H](CC(C)C)NC(=O)[C@H](CO)NC(C)=O)C(=O)NC(CC1CCCCC1)C(=O)NC(CC1CCCCC1)C(=O)N[C@@H](CC(N)=O)C(=O)N[C@@H](CC(C)C)C(=O)NC(C)(C)C(=O)N[C@H](C(=O)N[C@@H](CCCNC(=N)N)C(=O)N[C@@H](CCC(N)=O)C(=O)N[C@@H](CCCNC(=N)N)C(=O)NC(CC1CCCCC1)C(N)=O)[C@@H](C)O (stereo partly specified) | 11 | 1.3 | –
CC(=O)N[C@@H](CO)C(=O)N1CCC[C@@H]1C(=O)N[C@@H](CCCNC(=N)N)C(=O)N[C@@H](Cc1cnc[nH]1)C(=O)NC(CC1CCCCC1)C(=O)NC(CC1CCCCC1)C(=O)N[C@@H](CC(N)=O)C(=O)N[C@@H](CC(C)C)C(=O)NC(C)(C)C(=O)N[C@H](C(=O)N[C@@H](CCCNC(=N)N)C(=O)N[C@@H](CCC(N)=O)C(=O)N[C@@H](CCCNC(=N)N)C(=O)NC(CC1CCCCC1)C(N)=O)[C@@H](C)O (stereo partly specified) | 1.5 | 0.61 | 33
CC(=O)N[C@@H](CO)C(=O)N(C)[C@H](C)C(=O)N[C@@H](CCCNC(=N)N)C(=O)N[C@@H](Cc1cnc[nH]1)C(=O)NC(CC1CCCCC1)C(=O)NC(CC1CCCCC1)C(=O)N[C@@H](CC(N)=O)C(=O)N[C@@H](CC(C)C)C(=O)NC(C)(C)C(=O)N[C@H](C(=O)N[C@@H](CCCNC(=N)N)C(=O)N[C@@H](CCC(N)=O)C(=O)N[C@@H](CCCNC(=N)N)C(=O)NC(CC1CCCCC1)C(N)=O)[C@@H](C)O (stereo partly specified) | 2.8 | 0.59 | 28
CCC(NC(=O)[C@H](CCCNC(=N)N)NC(=O)[C@H](CC(C)C)NC(=O)[C@H](CO)NC(=O)[C@H](C)NC(C)=O)C(=O)NC(CC1CCCCC1)C(=O)NC(CC1CCCCC1)C(=O)N[C@@H](CC(N)=O)C(=O)N[C@@H](CC(C)C)C(=O)NC(C)(C)C(=O)N[C@H](C(=O)N[C@@H](CCCNC(=N)N)C(=O)N[C@@H](CCC(N)=O)C(=O)N[C@@H](CCCNC(=N)N)C(=O)NC(CC1CCCCC1)C(N)=O)[C@@H](C)O (stereo partly specified) (Ac-ASLR[ξAbu][ξCha][ξCha]NL[Aib]TRQR[ξCha]-NH2) | 6.8 | 4.6 | –
CCC(NC(=O)[C@H](CCCNC(=N)N)NC(=O)[C@H](CC(C)C)NC(C)=O)C(=O)NC(CC1CCCCC1)C(=O)NC(CC1CCCCC1)C(=O)N[C@@H](CC(N)=O)C(=O)N[C@@H](CC(C)C)C(=O)NC(C)(C)C(=O)N[C@H](C(=O)N[C@@H](CCCNC(=N)N)C(=O)N[C@@H](CCC(N)=O)C(=O)N[C@@H](CCCNC(=N)N)C(=O)NC(CC1CCCCC1)C(N)=O)[C@@H](C)O (stereo partly specified) (Ac-LR[ξAbu][ξCha][ξCha]NL[Aib]TRQR[ξCha]-NH2) | 17 | 6.4 | –
CC(=O)N[C@@H](CO)C(=O)NCC(=O)N[C@@H](CCCNC(=N)N)C(=O)N[C@@H](Cc1cnc[nH]1)C(=O)NC(CC1CCCCC1)C(=O)NC(CC1CCCCC1)C(=O)N[C@@H](CC(N)=O)C(=O)N[C@@H](CC(C)C)C(=O)NC(C)(C)C(=O)N[C@H](C(=O)N[C@@H](CCCNC(=N)N)C(=O)N[C@@H](CCC(N)=O)C(=O)N[C@@H](CCCNC(=N)N)C(=O)NC(CC1CCCCC1)C(N)=O)[C@@H](C)O (stereo partly specified) (Ac-SGRH[ξCha][ξCha]NL[Aib]TRQR[ξCha]-NH2) | 4.8 | 1.3 | –
CC(=O)N[C@@H](CO)C(=O)NC(C)(C)C(=O)N[C@@H](CCCNC(=N)N)C(=O)N[C@@H](Cc1cnc[nH]1)C(=O)NC(CC1CCCCC1)C(=O)NC(CC1CCCCC1)C(=O)N[C@@H](CC(N)=O)C(=O)N[C@@H](CC(C)C)C(=O)NC(C)(C)C(=O)N[C@H](C(=O)N[C@@H](CCCNC(=N)N)C(=O)N[C@@H](CCC(N)=O)C(=O)N[C@@H](CCCNC(=N)N)C(=O)NC(CC1CCCCC1)C(N)=O)[C@@H](C)O (stereo partly specified) (Ac-S[Aib]RH[ξCha][ξCha]NL[Aib]TRQR[ξCha]-NH2) | 2 | 0.55 | 51
CC(=O)N[C@@H](CO)C(=O)N(C)CC(=O)N[C@@H](CCCNC(=N)N)C(=O)N[C@@H](Cc1cnc[nH]1)C(=O)NC(CC1CCCCC1)C(=O)NC(CC1CCCCC1)C(=O)N[C@@H](CC(N)=O)C(=O)N[C@@H](CC(C)C)C(=O)NC(C)(C)C(=O)N[C@H](C(=O)N[C@@H](CCCNC(=N)N)C(=O)N[C@@H](CCC(N)=O)C(=O)N[C@@H](CCCNC(=N)N)C(=O)NC(CC1CCCCC1)C(N)=O)[C@@H](C)O (stereo partly specified) (Ac-S[Sar]RH[ξCha][ξCha]NL[Aib]TRQR[ξCha]-NH2) | 2.8 | 1 | 13
CCC(NC(=O)[C@H](CCCNC(=N)N)NC(=O)c1ccccc1)C(=O)NC(CC1CCCCC1)C(=O)NC(CC1CCCCC1)C(=O)N[C@@H](CC(N)=O)C(=O)N[C@@H](CC(C)C)C(=O)NC(C)(C)C(=O)N[C@H](C(=O)N[C@@H](CCCNC(=N)N)C(=O)N[C@@H](CCC(N)=O)C(=O)N[C@@H](CCCNC(=N)N)C(=O)NC(CC1CCCCC1)C(N)=O)[C@@H](C)O (stereo partly specified) (Bz-R[ξAbu][ξCha][ξCha]NL[Aib]TRQR[ξCha]-NH2) | 5.7 | 4.6 | –
CC(C)C[C@H](NC(=O)[C@H](CO)NC(=O)[C@H](C)N)C(=O)N[C@@H](CCCNC(=N)N)C(=O)N[C@@H](Cc1cnc[nH]1)C(=O)N[C@@H](CC1CCCCC1)C(=O)N[C@@H](CC1CCCCC1)C(=O)N[C@@H](CC(N)=O)C(=O)N[C@@H](CC(C)C)C(=O)NC(C)(C)C(=O)N[C@H](C(=O)N[C@@H](CCCNC(=N)N)C(=O)N[C@@H](CCC(N)=O)C(=O)N[C@@H](CCCNC(=N)N)C(=O)N[C@@H](CC1CCCCC1)C(N)=O)[C@@H](C)O (H-ASLRH[Cha][Cha]NL[Aib]TRQR[Cha]-NH2) | 1.7 | 0.74 | –
CCC(NC(=O)[C@H](CCCNC(=N)N)NC(=O)[C@H](CC(C)C)NC(=O)[C@H](CO)NC(=O)[C@H](C)N)C(=O)NC(CC1CCCCC1)C(=O)NC(CC1CCCCC1)C(=O)N[C@@H](CC(N)=O)C(=O)N[C@@H](CC(C)C)C(=O)NC(C)(C)C(=O)N[C@H](C(=O)N[C@@H](CCCNC(=N)N)C(=O)N[C@@H](CCC(N)=O)C(=O)N[C@@H](CCCNC(=N)N)C(=O)NC(CC1CCCCC1)C(N)=O)[C@@H](C)O (stereo partly specified) (H-ASLR[ξAbu][ξCha][ξCha]NL[Aib]TRQR[ξCha]-NH2) | 2.7 | 2.5 | –
CCC(NC(=O)[C@H](CCCNC(=N)N)NC(=O)C(C)C)C(=O)NC(CC1CCCCC1)C(=O)NC(CC1CCCCC1)C(=O)N[C@@H](CC(N)=O)C(=O)N[C@@H](CC(C)C)C(=O)NC(C)(C)C(=O)N[C@H](C(=O)N[C@@H](CCCNC(=N)N)C(=O)N[C@@H](CCC(N)=O)C(=O)N[C@@H](CCCNC(=N)N)C(=O)NC(CC1CCCCC1)C(N)=O)[C@@H](C)O (stereo partly specified) (Isobutyryl-R[ξAbu][ξCha][ξCha]NL[Aib]TRQR[ξCha]-NH2) | 7.3 | 4.2 | –
